Measurements published in patent US8679459B2, “B ring reduced-D ring oxidized tetrapyrrolic photosensitizers for photodynamic therapy and tumor imaging” (Health Research, Inc., priority 2008, dated 2014).

What was measured:
[1] = system: Colon-26 cells; assay: In vitro photosensitizing efficacy (MTT assay); assay type: cell-based; settings: for PDT efficacy compared to the free base analogs: In(III) complex vs. free base; for in vitro photosensitizing efficacy among all the compounds tested (fraction survival vs. light dose): 24 h incubation, light 0-2 J/cm^2, MTT
Description: In graphs A-E, Y=fraction surviving and X=Light dose in J/cm^2. The numbers in the legends refer to compound number in FIGS. 7-12.
In vitro Photosensitizing Efficacy (MTT Assay]: Colon-26 cells were grown in α-DMEM with 10% fetal calf serum, and penicillin and streptomycin. Cells were maintained in 5% CO2 and 95% air at 100% humidity. For phototoxicity studies, cells were placed in 96-well plates at a density of 5×10^4 cells/well, in complete medium. 24 h later, compounds were added at variable concentration. After 24 incubation in the dark at 37° C., the cells were irradiated with a laser light from an argon pumped dye laser using flunces of 0-2 J/cm^2 at a dose of 5.6 mW/cm^2. After PDT, the cells were washed once, placed in complete medium, and incubated for 48 h. Cells were incubated with 10 μL/well of 4 mg/mL MTT for the final 4 h. The MTT-containing medium was removed, and 100 μL DMSO was added to solubilize the formazan crystals. The absorbance of the wells was read on a microtiter plate reader at a wavelength of 560 nm.^10 The results were plotted as fraction survival vs. the light dose used at the same concentrations. […] These compounds are currently being evaluated for in vivo efficacy, where the pharmacokinetic and the pharmacodynamic properties of the molecules will have a significant impact in efficacy.

[2] = earlier work; cited from earlier work

Compound | PDT efficacy compared to the free base analogs [1] | in vitro photosensitizing efficacy among all the compounds tested (fraction survival vs. light dose) [1] | PDT activity among alkyl ether analogs of pyropheophorbide-a [2]
CCCCCCOC(C)c1c(C)/c2[n]3/c1=C\C1=NC(=C\c4c(C)c5c([n]4[In]3[Cl])/C(=C3N=C(\C=2)C(C)=C\3CCC(=O)OC)CC5=O)/[C@H](CC)[C@H]1C (some centres unmarked) [compound 24] | enhanced PDT efficacy |  | 
CC[C@H]1/C2=C/c3c(C)c4c5[n]3[In]([Cl])[n]3/c(c(C)c(C(C)=O)/c3=C/C(=N2)[C@@H]1C)=C\C1=NC(=C\5CC4=O)/C(CCC(=O)OC)=C1C [compound 22] | enhanced PDT efficacy | most effective | 
3-(1-hexyloxyethyl)-3-devinyl-pyropheophorbide-a [compound 3a] |  |  | most effective
CC[C@H]1/C2=C/c3c(C)c4c5[n]3[In]([Cl])[n]3/c(c(C)c(C(C)=O)/c3=C/C(=N2)[C@@H]1C)=C\C1=NC(=C\5CC4=O)/[C@@H](CCC(=O)OC)[C@@H]1C [compound 23] |  | most effective | 
